Assay results reported in patent US20260130933A1, “PHARMACEUTICAL COMPOSITION FOR PREVENTION OR TREATMENT OF NEPHROPATHY AND/OR DIABETES MELLITUS, COMPRISING ENAVOGLIFLOZIN” (DAEWOONG PHARMACEUTICAL CO., LTD., priority 2022, published 2026).

Assay: Example 1: phase 3 trial, enavogliflozin 0.3 mg once a day as monotherapy vs placebo for 24 weeks in patients with type 2 diabetes (HbA1c, FPG, C-peptide, body weight, lipids, blood pressure, HOMA, UACR, UGCR, adiponectin, leptin, safety)
Assay type: in vivo, human
Conditions: for Adiponectin, Mean (SD) / Adiponectin, Median / HOMA-IR, Mean (SD) / HOMA-IR, Median / HOMA-β, Mean (SD) / HOMA-β, Median / Leptin, Mean (SD) / Leptin, Median / UACR, Mean (SD) / UACR, Median / UGCR, Mean (SD) / UGCR, Median / Change from baseline in HOMA-IR, ANCOVA LS mean (SE) / Change from baseline in HOMA-IR, Mean (SD) / Change from baseline in HOMA-IR, Median / Change from baseline in HOMA-β, ANCOVA LS mean (SE) / Change from baseline in HOMA-β, Mean (SD) / Change from baseline in HOMA-β, Median / Change from baseline in UACR, ANCOVA LS mean (SE) / Change from baseline in UACR, Mean (SD) / Change from baseline in UACR, Median / Change from baseline in UGCR, ANCOVA LS mean (SE) / Change from baseline in UGCR, Mean (SD) / Change from baseline in UGCR, Median / Change from baseline in adiponectin, ANCOVA LS mean (SE) / Change from baseline in adiponectin, Mean (SD) / Change from baseline in adiponectin, Median / Change from baseline in leptin, ANCOVA LS mean (SE) / Change from baseline in leptin, Mean (SD) / Change from baseline in leptin, Median / Change from baseline in HOMA-IR, ANCOVA LS mean difference / Change from baseline in HOMA-β, ANCOVA LS mean difference / Change from baseline in UACR, ANCOVA LS mean difference / Change from baseline in UGCR, ANCOVA LS mean difference / Change from baseline in adiponectin, ANCOVA LS mean difference / Change from baseline in leptin, ANCOVA LS mean difference: LOCF, full analysis set; for Adiponectin, Mean (SD) / Adiponectin, Median / HOMA-IR, Mean (SD) / HOMA-IR, Median / HOMA-β, Mean (SD) / HOMA-β, Median / Leptin, Mean (SD) / Leptin, Median / UACR, Mean (SD) / UACR, Median / UGCR, Mean (SD) / UGCR, Median / Change from baseline in HOMA-IR, ANCOVA LS mean (SE) / Change from baseline in HOMA-IR, Mean (SD) / Change from baseline in HOMA-IR, Median / Change from baseline in HOMA-β, ANCOVA LS mean (SE) / Change from baseline in HOMA-β, Mean (SD) / Change from baseline in HOMA-β, Median / Change from baseline in UACR, ANCOVA LS mean (SE) / Change from baseline in UACR, Mean (SD) / Change from baseline in UACR, Median / Change from baseline in UGCR, ANCOVA LS mean (SE) / Change from baseline in UGCR, Mean (SD) / Change from baseline in UGCR, Median / Change from baseline in adiponectin, ANCOVA LS mean (SE) / Change from baseline in adiponectin, Mean (SD) / Change from baseline in adiponectin, Median / Change from baseline in leptin, ANCOVA LS mean (SE) / Change from baseline in leptin, Mean (SD) / Change from baseline in leptin, Median: 0.3 mg; for Change from baseline in HOMA-IR, ANCOVA LS mean difference / Change from baseline in HOMA-β, ANCOVA LS mean difference / Change from baseline in UACR, ANCOVA LS mean difference / Change from baseline in UGCR, ANCOVA LS mean difference / Change from baseline in adiponectin, ANCOVA LS mean difference / Change from baseline in leptin, ANCOVA LS mean difference: 0.3 mg vs placebo
Description: When a subject voluntarily gave written consent to participate in this clinical trial, a screening test was conducted. […] However, when the administration of a hypoglycemic agent was interrupted before the clinical trial Visit 1 (screening), at least an 8-week washout period, including the discontinuation period, was required, and during this period, a stable diet and exercise program was followed. Naïve patients were screened without a separate washout period, and the criteria for naïve patients were defined as patients who had not been administered hypoglycemic agents within 24 weeks prior to the date of obtaining written consent. […] In addition, they were instructed to maintain regular exercise and dietary control starting from 8 weeks prior to screening without changing their daily life patterns during the clinical trial period.

OC[C@H]1O[C@@H](c2cc(Cc3ccc(C4CC4)cc3)c(Cl)c3c2CCO3)[C@H](O)[C@@H](O)[C@@H]1O [Enavogliflozin, (2S,3R,4R,5S,6R)-2-(7-chloro-6 (4-cyclopropylbenzyl)-2,3-dihydrobenzofuran-4-yl)-6-(hydroxymethyl)tetrahydro-2H-pyran-3,4,5-triol]
Occurrence rates of adverse events or adverse drug reactions compared to the control (24 weeks, vs placebo): no statistically significant differences | Adiponectin, Mean (SD) (Baseline): 7.79 µg/mL | Adiponectin, Median (Baseline): 6.22 µg/mL | HOMA-IR, Mean (SD) (Baseline): 3.47 | HOMA-IR, Median (Baseline): 2.67 | HOMA-β, Mean (SD) (Baseline): 46.40 | HOMA-β, Median (Baseline): 36.25 | Leptin, Mean (SD) (Baseline): 11.16 ng/mL | Leptin, Median (Baseline): 6.94 ng/mL | UACR, Mean (SD) (Baseline): 28200 mg/kg | UACR, Median (Baseline): 10.50 g/kg | UGCR, Mean (SD) (Baseline): 1.42 mg/mg | UGCR, Median (Baseline): 10.11 mg/mg | Adiponectin, Mean (SD) (Week 6): 7.91 µg/mL | Adiponectin, Median (Week 6): 6.67 µg/mL | Change from baseline in HOMA-IR, ANCOVA LS mean (SE) (Week 6): −1.75 | Change from baseline in HOMA-IR, Mean (SD) (Week 6): −1.53 | Change from baseline in HOMA-IR, Median (Week 6): −0.96 | Change from baseline in HOMA-β, ANCOVA LS mean (SE) (Week 6): 3.20 | Change from baseline in HOMA-β, Mean (SD) (Week 6): 3.95 | Change from baseline in HOMA-β, Median (Week 6): 3.10 | Change from baseline in UACR, ANCOVA LS mean (SE) (Week 6): 1.45 g/kg | Change from baseline in UACR, Mean (SD) (Week 6): 3660 mg/kg | Change from baseline in UACR, Median (Week 6): 0.80 g/kg | Change from baseline in UGCR, ANCOVA LS mean (SE) (Week 6): 55.38 mg/mg | Change from baseline in UGCR, Mean (SD) (Week 6): 53.23 mg/mg | Change from baseline in UGCR, Median (Week 6): 50.85 mg/mg | Change from baseline in adiponectin, ANCOVA LS mean (SE) (Week 6): 0.22 µg/mL | Change from baseline in adiponectin, Mean (SD) (Week 6): 0.31 µg/mL | Change from baseline in adiponectin, Median (Week 6): 0.48 µg/mL | Change from baseline in leptin, ANCOVA LS mean (SE) (Week 6): -2.82 ng/mL | Change from baseline in leptin, Mean (SD) (Week 6): -2.48 ng/mL | Change from baseline in leptin, Median (Week 6): -1.13 ng/mL | HOMA-IR, Mean (SD) (Week 6): 1.96 | HOMA-IR, Median (Week 6): 1.62 | HOMA-β, Mean (SD) (Week 6): 50.65 | HOMA-β, Median (Week 6): 40.10 | Leptin, Mean (SD) (Week 6): 8.61 ng/mL | Leptin, Median (Week 6): 5.75 ng/mL | UACR, Mean (SD) (Week 6): 32120 mg/kg | UACR, Median (Week 6): 11.30 g/kg | UGCR, Mean (SD) (Week 6): 54.67 mg/mg | UGCR, Median (Week 6): 51.06 mg/mg | Change from baseline in HOMA-IR, ANCOVA LS mean difference (Week 6): −1.81 | Change from baseline in HOMA-β, ANCOVA LS mean difference (Week 6): 3.30 | Change from baseline in UACR, ANCOVA LS mean difference (Week 6): 7.96 g/kg | Change from baseline in UGCR, ANCOVA LS mean difference (Week 6): 52.97 mg/mg | Change from baseline in adiponectin, ANCOVA LS mean difference (Week 6): 0.26 µg/mL | Change from baseline in leptin, ANCOVA LS mean difference (Week 6): -2.89 ng/mL | Adiponectin, Mean (SD) (Week 12): 8.57 µg/mL | Adiponectin, Median (Week 12): 6.59 µg/mL | Change from baseline in HOMA-IR, ANCOVA LS mean (SE) (Week 12): −1.60 | Change from baseline in HOMA-IR, Mean (SD) (Week 12): −1.50 | Change from baseline in HOMA-IR, Median (Week 12): −1.09 | Change from baseline in HOMA-β, ANCOVA LS mean (SE) (Week 12): 13.51 | Change from baseline in HOMA-β, Mean (SD) (Week 12): 12.44 | Change from baseline in HOMA-β, Median (Week 12): 7.15 | Change from baseline in UACR, ANCOVA LS mean (SE) (Week 12): -4.45 g/kg | Change from baseline in UACR, Mean (SD) (Week 12): -7760 mg/kg | Change from baseline in UACR, Median (Week 12): 0.60 g/kg | Change from baseline in UGCR, ANCOVA LS mean (SE) (Week 12): 52.58 mg/mg | Change from baseline in UGCR, Mean (SD) (Week 12): 52.43 mg/mg | Change from baseline in UGCR, Median (Week 12): 51.21 mg/mg | Change from baseline in adiponectin, ANCOVA LS mean (SE) (Week 12): 0.94 µg/mL | Change from baseline in adiponectin, Mean (SD) (Week 12): 0.78 µg/mL | Change from baseline in adiponectin, Median (Week 12): 0.65 µg/mL | Change from baseline in leptin, ANCOVA LS mean (SE) (Week 12): -2.35 ng/mL | Change from baseline in leptin, Mean (SD) (Week 12): -2.38 ng/mL | Change from baseline in leptin, Median (Week 12): -1.15 ng/mL | HOMA-IR, Mean (SD) (Week 12): 1.97 | HOMA-IR, Median (Week 12): 1.53 | HOMA-β, Mean (SD) (Week 12): 58.83 | HOMA-β, Median (Week 12): 42.30 | Leptin, Mean (SD) (Week 12): 8.78 ng/mL | Leptin, Median (Week 12): 6.26 ng/mL | UACR, Mean (SD) (Week 12): 20430 mg/kg | UACR, Median (Week 12): 11.15 g/kg | UGCR, Mean (SD) (Week 12): 53.85 mg/mg | UGCR, Median (Week 12): 51.70 mg/mg | Change from baseline in HOMA-IR, ANCOVA LS mean difference (Week 12): −1.72 | Change from baseline in HOMA-β, ANCOVA LS mean difference (Week 12): 12.09 | Change from baseline in UACR, ANCOVA LS mean difference (Week 12): -15.16 g/kg | Change from baseline in UGCR, ANCOVA LS mean difference (Week 12): 51.21 mg/mg | Change from baseline in adiponectin, ANCOVA LS mean difference (Week 12): 0.67 µg/mL | Change from baseline in leptin, ANCOVA LS mean difference (Week 12): -3.17 ng/mL | Adiponectin, Mean (SD) (Week 18): 8.62 µg/mL | Adiponectin, Median (Week 18): 6.76 µg/mL | Change from baseline in HOMA-IR, ANCOVA LS mean (SE) (Week 18): −1.55 | Change from baseline in HOMA-IR, Mean (SD) (Week 18): −1.48
